The test system of this assay is HCV replicon cells. The experiment in a line: HCV replicon FRET / luciferase assay. In kind it is cell-based, Hepatitis C virus. How it is done: The HCV FRET screening assay was performed in 96-well cell culture plates. The FRET peptide (Anaspec, Inc.) (Taliani et al., Anal. Biochem. 1996, 240, 60-67) contains a fluorescence donor, EDANS, near one end of the peptide and an acceptor, DABCYL, near the other end. The fluorescence of the peptide is quenched by […] resonance energy transfer (RET) between the donor and the acceptor, but as the NS3 protease cleaves the peptide the products are released from RET quenching and the fluorescence of the donor becomes apparent. The assay reagent was made as follows: 5× cell Luciferase cell culture lysis reagent from Promega (#E153A) diluted to 1× with dH2O, NaCl added to 150 mM final, the FRET peptide diluted to 20 μM final from a 2 mM stock.
To prepare plates, HCV replicon cells, with or without a Renilla luciferase reporter gene, were trypsinized and plated in a 96-well plate with titrated test compounds added in columns 3 through 12; columns 1 and 2 contained a control compound (HCV control inhibitor), and the bottom row contained cells with DMSO only. The plates were then placed in a CO2 incubator at 37° C.
Subsequent to addition of the test compounds described above (FRET Assay Preparation), at various times the plate was removed and Alamar blue solution (Trek Diagnostics, #00-100) was added to measure cellular toxicity. After reading in a Cytoflour 4000 instrument (PE Biosystems), plates were rinsed with PBS and then used for FRET assay by the addition of 30 ul of the FRET peptide assay reagent described above (FRET Assay Preparation) per well. The plate was then placed into the Cytoflour 4000 instrument which had been set to 340 excite/490 emission, automatic mode for up to 20 cycles and the plate read in a kinetic mode. Typically, the signal to noise using an endpoint analysis after the reads was at least three-fold. Alternatively, after Alamar blue reading, plates were rinsed with PBS, then used for luciferase assay using the Promega Dual-Glo Luciferase Assay System or the Promega EnduRen Live Cell Substrate assay.
Compound analysis was performed by quantification of the relative HCV replicon inhibition and the relative cytotoxicity values. To calculate cytoxicity values, the average Alamar Blue fluorescence signals from the control wells were set as 100% non-toxic. The individual signals in each of the compound test wells were then divided by the average control signal and multiplied by 100% to determine […]. To calculate the HCV replicon inhibition values, an average background value was obtained from the two wells containing the highest amount of HCV control inhibitor at the end of the assay period. These numbers were similar to those obtained from naïve Huh-7 cells. The background numbers were then subtracted from the average signal obtained from the control wells and this number was used as 100% activity. The individual signals in each of the compound test wells were then divided by the averaged control values after background subtraction and multiplied by 100% to determine percent activity. […] The two numbers generated for the compound plate, percent cytoxicity and percent activity, were used to determine compounds of interest for further analysis.

Where [1] appears, read: HCV replicon cells, FRET or luciferase activity.

pEC50: −log10 of the molar value. Read-outs that look alike come from different tables or passages of the source.

The molecule `COc1ccc2c(c1)C1CC1(C(=O)N1C3CCC1CN(C)C3)Cn1c-2c(C2CCCCC2)c2ccc(C(=O)NS(=O)(=O)C(C)C)cc21` (centres unmarked) showed a pEC50 (Hepatitis C virus) of 6.30 to 9.00. The same measure, in the same setting: with `COc1ccc2c(c1)[C@H]1C[C@@]1(C(=O)N1C3CCC1CN(C)C3)Cn1c-2c(C2CCCCC2)c2ccc(C(=O)NS(=O)(=O)C(C)C)cc21` the figure was 6.30 to 9.00; with `COc1ccc2c(c1)[C@@H]1C[C@]1(C(=O)N1C3CCC1CN(C)C3)Cn1c-2c(C2CCCCC2)c2ccc(C(=O)NS(=O)(=O)C(C)C)cc21`, 6.30 to 9.00; with `COc1ccc2c(c1)C1CC1(C(=O)N1C3CCC1CN(C)C3)Cn1c-2c(C2CCCCC2)c2ccc(C(=O)NS(=O)(=O)C3CCCC3)cc21` (centres unmarked), 6.30 to 9.00. With `COc1ccc2c(c1)C1CC1(C(=O)N1C3CCC1CN(C)C3)Cn1c-2c(C2CCCCC2)c2ccc(C(=O)NS(=O)(=O)CC(C)C)cc21` (centres unmarked), the negative logarithm of the EC50 (pEC50) (Hepatitis C virus, HCV replicon cells, FRET or luciferase activity, read-out: EC50) was 6.30 to 9.00. Regarding `CCCS(=O)(=O)NC(=O)c1ccc2c(C3CCCCC3)c3n(c2c1)CC1(C(=O)N2C4CCC2CN(C)C4)CC1c1cc(OC)ccc1-3` (centres unmarked), the pEC50 (Hepatitis C virus) is 6.30 to 9.00. For the molecule `CCC(C)S(=O)(=O)NC(=O)c1ccc2c(C3CCCCC3)c3n(c2c1)CC1(C(=O)N2C4CCC2CN(C)C4)CC1c1cc(OC)ccc1-3` (centres unmarked), the negative-log EC50 (pEC50) (Hepatitis C virus) was 6.30 to 9.00. The same measure, in the same setting: for `COc1ccc2c(c1)C1CC1(C(=O)N1C3CCC1CN(C)C3)Cn1c-2c(C2CCCCC2)c2ccc(C(=O)NS(=O)(=O)C(C)(C)C)cc21` (centres unmarked) the value was 6.30 to 9.00; for `CN1CC2CCC(C1)N2C(=O)C12CC1c1ccccc1-c1c(C3CCCCC3)c3ccc(C(=O)NS(=O)(=O)N(C)C)cc3n1C2` (centres unmarked), 6.30 to 9.00. Consider `COc1ccc2c(c1)C1CC1(C(=O)N1C3CCC1CN(C)C3)Cn1c-2c(C2CCCCC2)c2ccc(C(=O)NS(=O)(=O)CCC(F)(F)F)cc21` (centres unmarked), for which the negative logarithm of the EC50 (pEC50) (Hepatitis C virus) was 6.30 to 9.00. Turning to `COc1ccc2c(c1)C1CC1(C(=O)N1C3CCC1CN(C)C3)Cn1c-2c(C2CCCCC2)c2ccc(C(=O)NS(=O)(=O)CC(F)(F)F)cc21` (centres unmarked), the negative-log EC50 (pEC50) (Hepatitis C virus) was 6.30 to 9.00.

Take `CC(C)S(=O)(=O)NC(=O)c1ccc2c(C3CCCCC3)c3n(c2c1)CC1(C(=O)N2C4CCC2CN(C)C4)CC1c1ccccc1-3` (centres unmarked) [drawing 126]: the negative logarithm of the EC50 (pEC50) (Hepatitis C virus) is 6.30 to 9.00. In turn, `CC(C)S(=O)(=O)NC(=O)c1ccc2c(C3CCCCC3)c3n(c2c1)CC1(C(=O)N2C4CCC2CN(C)C4)CC1c1ccccc1-3` (centres unmarked) [drawing 130] showed a pEC50 under setting [1] of 6.30 to 9.00. With `CC(C)S(=O)(=O)NC(=O)c1ccc2c(C3CCCCC3)c3n(c2c1)CC1(C(=O)N2C4CCC2CN(C)C4)CC1c1ccccc1-3` (centres unmarked) [drawing 131], the pEC50 under setting [1] was 6.30 to 9.00.

The values are drawn from patent US20130171098A1, “Cyclopropyl Fused Indolobenzazepine HCV NS5B Inhibitors” (priority 2006, published 2013).
